According to a melting point compilation (Tetko et al.):

| melting point | SMILES |
| --- | --- |
| 87 to 89 °C | COC(=O)C1=C(N)CCN(Cc2ccccc2)C1 |
| 46 to 49 °C | Cc1ccc(C(=O)CCCCl)cc1C |
| 165 °C | CC1(C)OC(=O)C(=NNc2ccccc2[N+](=O)[O-])C(=O)O1 |
| -21 °C | O=Cc1ccccn1 |
| 229 to 233 °C | O=C(O)CCc1ccc(CCC(=O)O)cc1 |
| 82 to 83 °C | CC(=O)Nc1ccc(CC#N)cc1 |
| 20 °C | CCCCC(O)(CCCC)CCCC |
| 155 to 158 °C | OCc1cccc2cccc(CO)c12 |
| 192 to 195 °C | Sc1nc2ccccc2o1 |
| 79 °C | CC(=O)c1ccc(-c2ccccc2[N+](=O)[O-])o1 |
| 91 to 93 °C | COc1ccc(Oc2ccc([N+](=O)[O-])cc2C(=O)Cl)cc1 |
| 117 to 120 °C | CC(=O)Nc1ccc(F)cc1Cl |
| -42.9 °C | FC(F)(Cl)C(Cl)(Cl)C(F)(F)Cl |
| 184 °C | O=C1C(=O)c2ccccc2C(Cl)=C1Cl |
| > 20 °C | CCCOC(=O)C(C)c1ccc(-c2ccccc2)c(F)c1 (configuration not stated) |
| 166 °C | Cc1cc(C(=O)O)cc(C)c1F |
| 179 °C | Cc1ccc([N+](=O)[O-])cc1C(=O)O |
| 95 °C | CCCNC(=O)NNC(=O)OCC |
| 47 °C | CCOc1ccc(C(C)O)cc1 (configuration not stated) |
| 38 °C | c1ccc2sncc2c1 |
| 120 to 123 °C | CC12CCC(O)CC1CCC1C2CCC2(C)C1CCC2(O)C#Cc1ccccc1 (configuration not stated) |

| melting point | SMILES |
| --- | --- |
| 178 °C | Cc1ccccc1/N=N/c1c(C)[nH]c(=S)c(C#N)c1C |
| 156 to 157 °C | Cc1nn(C)c(N2CCOCC2)c1N |
| 132 to 134 °C | CC(/C=C(\C)c1ccc(-c2ccccc2)cc1)=NNS(=O)(=O)c1ccc(C)cc1 |
| 206 °C | COC(=O)c1ccc(C(N)=O)cc1 |
| 149 to 150 °C | CCOC(=O)c1nnn2c3ccccc3c(=O)n(C)c12 |
| 257 °C | NC1(C(=O)O)CC1 |
| 31 to 33 °C | CS(=O)(=O)CCO |
| 134 °C | N=c1sc(C(=O)c2cccs2)nn1-c1ccccc1 |
| 92 °C | C=CCOc1ccc(CC(=O)O)cc1Cl |
| 156 °C | Cc1cccc2cc3c(ccc4ccccc43)cc12 |
| 102 °C | O=S(=O)(Cl)c1cc(S(=O)(=O)c2ccccc2)cs1 |
| 153 °C | OC(c1ccc(F)cc1)C(O)c1ccc(F)cc1 (configuration not stated) |
| 251 to 252 °C | CCOC(=O)C(C#N)=C(N)c1cc2cccc(OC)c2oc1=O |
| 67 to 68 °C | O=Cc1ccc(-c2cccs2)cc1 |
| 108 °C | CC(N)C(O)c1cccc(O)c1 (configuration not stated) |
| 192 °C | Nc1ccc(Nc2ccccc2)c2c1C(=O)c1ccccc1C2=O |
| 120 to 122 °C | O=C(Nc1ccc([N+](=O)[O-])cc1[N+](=O)[O-])C(C(F)(F)F)C(F)(F)F |
| 182 to 186 °C | C=CCNC(=O)C(O)C(O)C(=O)NCC=C (configuration not stated) |
| 158 to 162 °C | CCC1NC(C(=O)O)CS1 (mixture of isomers) |
| 58 °C | O=C(O)C1CC1(F)F (configuration not stated) |
| 88 to 91 °C | CSC(SC)=C(C#N)S(=O)(=O)C(C)C |

| melting point | SMILES |
| --- | --- |
| 65.5 °C | Cc1cc(C)c(Br)c(C)c1Br |
| 120 to 122 °C | c1ccc(P(c2ccccc2)P(c2ccccc2)c2ccccc2)cc1 |
| 145 to 155 °C | NC(=S)c1ccc2c(c1)CCO2 |
| 273 to 274 °C | O=S(=O)(O)CC(O)CN1CCOCC1 (configuration not stated) |
| 208 to 212 °C | Brc1nc(Br)c(Br)[nH]1 |
| 35 °C | COC(=O)c1occc1C |
| 129 °C | CC(=O)Oc1c[nH]c2ccccc12 |
| 198 to 200 °C | O=C(O)c1cccc2nsnc12 |
| 87 to 89 °C | CCOC(=O)c1sc(SC(C)C)c2c1CC(C)(C)CC2=O |
| 190 °C | COc1ccc(-c2ccc(S(=O)(=O)NCCC(=O)O)cc2)cc1 |
| 162 to 166 °C | Cc1ccc(C(=O)NCC(=O)O)cc1 |
| 104 °C | Cc1[nH]nc(-c2ccccc2)c1C |
| 345 °C | O=C(O)c1cc(=O)[nH]c(=O)[nH]1 |
| -75 °C | FC(F)CBr |
| 69 to 70 °C | CS(=O)(=O)OS(C)(=O)=O |
| 16 to 18 °C | CCOC(=O)C(=O)CC(C)=O |
| 144 °C | O=c1n(-c2ccccc2)c(=O)n2n1C1OC3CCC1C32 (configuration not stated) |
| 280 °C | NC(=O)c1cccc(C(=O)O)c1 |
| 85 to 86 °C | O=C=Nc1cc(F)cc2c1OCOC2 |
| 59 °C | O=c1ccoc2ccccc12 |
| -17 °C | CCCCCCCCCCCC(=O)Cl |

| melting point | SMILES |
| --- | --- |
| -70 °C | CCO[Si](CCCN)(OCC)OCC |
| 159 °C | Cc1ccc(S(=O)(=O)N2CCCN(S(=O)(=O)c3ccc(C)cc3)CC(=O)NCCCNC(=O)C2)cc1 |
| 55 °C | COC1=CC(=O)C2(C)CCC1C2(C)C (configuration not stated) |
| 79 °C | C=CC=CC(=O)O |
| 180 to 183 °C | O=CN(C=O)N(C=O)C=O |
| 60 °C | N#Cc1ccc(Cl)cc1F |
| 59 to 61 °C | CCCCCCCCOc1ccc(C(C)=O)cc1OCCCCCCCC |
| 71 °C | CC(C)NCC(O)COc1ccc(CCOCC2CC2)cc1 (configuration not stated) |
| 130 to 135 °C | Cc1nc(-c2ccc(Br)cc2)cs1 |
| 146 °C | NS(=O)(=O)c1cccc(Cl)c1 |
| -80 °C | O=CC12CC=CCC1C1CC=CCC1O2 (configuration not stated) |
| 78 °C | NC(=O)c1sccc1Br |
| 97 °C | CN1CCCN(c2ccc(CO)cc2)CC1 |
| 78 to 79 °C | Cc1nc(-c2ccc(Br)s2)cs1 |
| 212 to 213 °C | Cc1ccc(S(=O)(=O)c2ncsc2SCC(=O)c2ccc(Cl)cc2)cc1 |
| 144 to 146 °C | CCOC(=O)c1c(C)sc(Sc2ccccc2[N+](=O)[O-])c1O |
| 99 to 100 °C | Cc1cc(C)c2c(c1)CC(C)(C)C(=O)OC2=O |
| 226 °C | CC(=O)Nc1ccc(C(=O)O)cc1[N+](=O)[O-] |
| 131 °C | CCCCNC(=O)NS(=O)(=O)c1ccccc1 |
| 81 to 85 °C | COc1ccc([N+](=O)[O-])c2ccccc12 |
| 196 °C | CN(C)c1ccc(C(C=C2C=Cc3ccccc3N2N=O)c2ccccc2)cc1 (configuration not stated) |

| SMILES | melting point |
| --- | --- |
| Cc1c(Cl)c(=O)oc2cc(OP(=O)(OCCCl)OCCCl)ccc12 | 91 °C |
| CN1CCc2cc3c(cc2C1)OCO3 | 66 °C |
| COS(=O)(=O)c1ccc([N+](=O)[O-])cc1 | 94 °C |
| CCc1ccccc1[N+](=O)[O-] | -12.3 °C |
| OCc1ccco1 | -14.6 °C |
| CCC(C)c1cc([N+](=O)[O-])cc([N+](=O)[O-])c1O (configuration not stated) | 40 °C |
| O=Nc1ccc(Nc2ccccc2)cc1 | 143 °C |
| COc1c(C(C)(C)C)cc([N+](=O)[O-])c(C)c1[N+](=O)[O-] | 85 °C |
| Cn1ncc(Br)c1NC(=O)CCl | 137 to 139 °C |
| CN(CC(=O)O)N=O | 66.5 °C |
| O=[N+]([O-])c1ccc(Oc2ccc(C(F)(F)F)cc2Cl)cc1 | 68 °C |
| CNCC(O)c1ccc(O)cc1 (configuration not stated) | 184 °C |
| CCOc1cc(Oc2ccc(C(F)(F)F)cc2Cl)ccc1[N+](=O)[O-] | 85.3 °C |
